Entries after “also recorded” stand apart in the source; their conditions may differ.
How the values were obtained:
[1] = test system: human colonic cancer cell line COLO-205; test: tritiated thymidine incorporation, tumor cell growth (COLO-205); type: cell-based; conditions: COLO-205, FIG. 2A
Excerpt: FIGS. 2A-2C show the effect of sphingosine derivatives on human tumor cell growth. In FIG. 2A the growth of human colonic cancer cell line COLO-205 was monitored. In FIG. 2B the growth of human lung cancer cell line LU-65 was monitored. In FIG. 2C the growth of human gastric cancer cell line MKN-74 was monitored. In each Figure the ordinate represents the percent inhibition of tritiated thymidine incorporation, the solid circles represent sphingosine, the open circles represent N,N-dimethylsphingosine and the triangles represent N,N,N-trimethylsphingosine.
An in vitro assay relying on tritiated thymidine incorporation can be used to ascertain the effect of various compounds on cell proliferation. Briefly, tumor cells are seeded in flat bottom 96 well plates (Corning, N.Y.) at a concentration of 2×10^4 cells per well. The cells are cultured for 2 days in DMEM containing various concentrations of sphingoid, which is added as a PBS solution. The medium then is supplemented with tritiated thymidine at a concentration of 0.5 μCi per well. Following a six hour incubation the cells are collected using the PHD Cell Harvester (Cambridge Technology, Cambridge, Mass.) and amounts of incorporated radioactivity are determined after adding a suitable cell lysing agent and scintillation cocktail, such as ScintiVerse BD (Fisher Scientific, Fairlawn, Calif.) which performs both functions. […]

[2] = test system: F1 melanoma cells; test: melanoma F1 cell proliferation (thymidine incorporation); type: cell-based; conditions: F1, FIG. 5B
Excerpt: FIGS. 5A and 5B depict the effect of N,N,N-trimethylsphingosine (open circles), N,N-dimethylsphingosine (solid circles) and sphingosine (open squares) on two melanoma cell lines, BL6, a highly malignant cell line (in FIG. 5A) and F1, a cell line of low malignancy, (in FIG. 5B). Cell proliferation was evidenced by tritiated thymidine incorporation into DNA.
An in vitro assay relying on tritiated thymidine incorporation can be used to ascertain the effect of various compounds on cell proliferation. Briefly, tumor cells are seeded in flat bottom 96 well plates (Corning, N.Y.) at a concentration of 2×10^4 cells per well. The cells are cultured for 2 days in DMEM containing various concentrations of sphingoid, which is added as a PBS solution. The medium then is supplemented with tritiated thymidine at a concentration of 0.5 μCi per well. Following a six hour incubation the cells are collected using the PHD Cell Harvester (Cambridge Technology, Cambridge, Mass.) and amounts of incorporated radioactivity are determined after adding a suitable cell lysing agent and scintillation cocktail, such as ScintiVerse BD (Fisher Scientific, Fairlawn, Calif.) which performs both functions.
Certain cancer cells show a higher metastatic potential and invasive capability than others. For example the BL6 and F10 melanoma cell lines are highly metastatic and invasive. […]

[3] = test system: mouse CTLL-2 cells; test: CTLL-2 cell proliferation (thymidine incorporation); type: cell-based; conditions: FIG. 10
Protocol: FIG. 10 depicts the effect of sphingosine derivatives on mouse T-cell line CTLL. Each point is the mean of three replicates. In the figure DMS represents N,N-dimethylsphingosine and TMS represents N,N,N-trimethylsphingosine.
For example, mouse CTLL-2 cells (ATCC No. TIB 214), a T lymphocyte cell line, were plated at 1.5×10^4 cells per well and exposed to test substances. Cell proliferation was monitored by thymidine incorporation.

[4] = test system: erythrocytes; test: erythrocyte metabolic activity under blood storage conditions; type: cell-based; conditions: in vitro, normal blood storage conditions
Excerpt: Similar results can be expected for leukocytes and platelets.

[5] = test system: HUVEC's; test: morphologic damage to endothelial cells (HUVEC's); type: cell-based, human; conditions: staurosporine 2 μM, calphostin C 5 μM
Protocol: A characteristic of neutrophils is the ability to adhere to activiated EC's and to migrate through the EC monolayer into the vascular or extravascular matrix. The effect of TMS on neutrophil interactions with EC's and their subsequent trans-endothelial migration thereof can be monitored in vitro using human umbilical endothelial cells (HUVEC's) (Luscinskas et al., J. Imm., 146, 1617, 1991). Neutrophils are added to a HUVEC monolayer and neutrophil-HUVEC interactions are assessed microscopically following fixation, embedding and staining of monolayer sections.
HUVEC's and culture media were purchased from Cell Systems (Kirkland, Wash.). The cells were maintained and cultured as described in Luscinskas et al., supra, with some modifications. Briefly, HUVEC's were maintained in 10 ml tissue culture flasks on a collagen type I bed obtained from rat tail (Upstate Biotechnology Inc, Lake Placid, N.Y.) with CS-complete medium, CS-growth factor and CS-AF-1 (Cell Systems). Cells became confluent within 2 to 4 days when incubated in 5% CO2 at 37° C.
The HUVEC monolayer in 24-well tissue culture plates were washed with M199 without FCS, then incubated with 1 ml/well of IL-1β (Boehringer Mannheim Biochemical Products, Indianapolis, Ind.) dissolved in M199 with 1% heat-inactivated FCS (HIFCS) at 10 U/ml. The plates were incubated at 37° C., 5% CO2 for 4 hr then washed gently with 1 ml of M199. […]

Compound | inhibition of tumor cell growth [1] | inhibition of cell growth [2] | suppression of CTLL-2 cell growth [3] | erythrocyte metabolic activity [4] | morphologic damage to EC's [5]
CCCCCCCCCCCCC/C=C/[C@@H](O)[C@H](CO)[N+](C)(C)C [TMS, N,N,N-trimethylsphingosine] | superior to sphingosine; also recorded: showed an advantage over DMS | more effective than DMS and sphingosine | effective in suppressing CTLL-2 cell growth | retards erythrocyte metabolic activity | 
Calphostin C |  |  |  |  | striking morphologic damage to EC's
